Source: DBAASP
In brackets after ≈: the same amount, converted by molar mass.

Tests used:
Experiment in all cases: ≥ marks a high value that may be exact or a test limit, other limits are often not marked, values filed in µg/mL are converted to µM
Escherichia coli K-12 = tested on: Escherichia coli K-12
Escherichia coli L- = tested on: Escherichia coli L-
[1] = tested on: Klebsiella pneumoniae CIP 8291
[2] = tested on: Lactococcus lactis subsp. cremoris I116
Listeria ivanovii LMA 94 = tested on: Listeria ivanovii LMA 94
[3] = tested on: Staphylococcus aureus CIP 677
[4] = tested on: Staphylococcus aureus USA 300
[5] = tested on: Candida albicans ATCC 10231
[6] = tested on: Candida albicans ATCC 90028
[7] = tested on: Cutibacterium acnes ATCC 11828
[8] = tested on: Cutibacterium acnes ATCC 15725
[9] = tested on: Cutibacterium acnes ATCC 18380
[10] = tested on: Cutibacterium acnes ATCC 29903
[11] = tested on: Cutibacterium acnes ATCC 31766
[12] = tested on: Cutibacterium acnes ATCC 32548
[13] = tested on: Cutibacterium acnes ATCC 33257
[14] = tested on: Cutibacterium acnes ATCC 50247
[15] = tested on: Enterococcus faecalis NCTC 12697
[16] = tested on: Escherichia coli ATCC 25726
[17] = tested on: Escherichia coli ATCC 8739
[18] = tested on: Escherichia coli ATCC BAA-2340
[19] = tested on: Klebsiella pneumoniae ATCC 43816
[20] = tested on: Klebsiella pneumoniae ATCC BAA-1705
[21] = tested on: Pseudomonas aeruginosa ATCC 9027
[22] = tested on: Pseudomonas aeruginosa B004 V2S2B
[23] = tested on: Staphylococcus aureus ATCC 25923
[24] = tested on: Staphylococcus aureus ATCC 6538
[25] = tested on: Staphylococcus aureus NCTC 12493
Staphylococcus aureus = tested on: Staphylococcus aureus
[26] = tested on: Acinetobacter baumannii ATCC 19606
[27] = tested on: Escherichia coli ATCC 25922
Escherichia coli D21 = tested on: Escherichia coli D21
Micrococcus luteus = tested on: Micrococcus luteus
[28] = tested on: Pseudomonas aeruginosa ATCC 27853
[29] = tested on: Staphylococcus aureus II ATCC 6538P
[30] = tested on: Staphylococcus epidermidis LT1324
Staphylococcus simulans = tested on: Staphylococcus simulans

CC[C@H](C)[C@H](NC(=O)[C@H](CCCCN)NC(=O)CNC(=O)[C@H](CC(C)C)NC(=O)[C@@H](NC(=O)[C@H](C)NC(=O)[C@H](CCCCN)NC(=O)CNC(=O)[C@H](C)NC(=O)CNC(=O)[C@H](CCCCN)NC(=O)[C@@H](NC(=O)[C@H](CCCCN)NC(=O)[C@@H](NC(=O)[C@H](Cc1c[nH]c2ccccc12)NC(=O)[C@H](CC(C)C)NC(=O)[C@H](CCC(=O)O)NC(=O)[C@H](CCCCN)NC(=O)[C@H](CC(C)C)NC(=O)[C@@H](N)CC(C)C)[C@@H](C)O)[C@@H](C)CC)C(C)C)C(=O)N[C@@H](CCCCN)C(=O)NCC(=O)N[C@@H](CC(C)C)C(=O)N[C@@H](CC(C)C)C(=O)O [LLKELWTKIKGAGKAVLGKIKGLL]
MIC (Escherichia coli K-12): 25 µM (≈ 64.5 µg/mL) | MIC (Escherichia coli L-): ≥ 64 µM | MIC [1]: ≥ 32 µM | MIC [2]: 2 µM (≈ 5.16 µg/mL) | MIC (Listeria ivanovii LMA 94): 4 µM (≈ 10.3 µg/mL) | MIC [3]: ≥ 32 µM | MIC [4]: ≥ 85 µM

CC[C@H](C)[C@H](NC(=O)[C@@H](NC(=O)CN)C(C)C)C(=O)N[C@H](C(=O)N[C@@H](CC(=O)O)C(=O)N[C@H](C(=O)N[C@@H](CC(C)C)C(=O)N[C@@H](CCCCN)C(=O)NCC(=O)N[C@@H](C)C(=O)N[C@@H](C)C(=O)N[C@@H](CCCCN)C(=O)N[C@H](C(=O)N[C@H](C(=O)N[C@@H](C)C(=O)N[C@@H](C)C(=O)N[C@@H](CCC(=O)O)C(=O)N[C@@H](CC(C)C)C(=O)N[C@@H](CC(C)C)C(=O)N[C@@H](CCCN=C(N)N)C(=O)N[C@@H](CCCCN)C(=O)N[C@@H](C)C(=O)N[C@@H](Cc1cnc[nH]1)C(=O)N[C@H]1CSSC[C@@H](C(=O)O)NC(=O)[C@H](CO)NC(=O)[C@H](CC(N)=O)NC(=O)[C@H]([C@@H](C)O)NC(=O)[C@H](CC(C)C)NC(=O)[C@H](CCCCN)NC1=O)C(C)C)[C@@H](C)O)[C@@H](C)O)[C@@H](C)CC [GVIIDTLKGAAKTVAAELLRKAHCKLTNSC]
MIC [5]: > 512 µM | MIC [6]: ≥ 64 µM | MIC [7]: 12.5 µM (≈ 39 µg/mL) | MIC [8]: 25 µM (≈ 78.1 µg/mL) | MIC [9]: 12.5 µM (≈ 39 µg/mL) | MIC [10]: 25 µM (≈ 78.1 µg/mL) | MIC [11]: 6 µM (≈ 18.7 µg/mL) | MIC [12]: 25 µM (≈ 78.1 µg/mL) | MIC [13]: 6 µM (≈ 18.7 µg/mL) | MIC [14]: 6 µM (≈ 18.7 µg/mL) | MIC [15]: ≥ 512 µM | MIC [16]: ≥ 32 µM | MIC [17]: 16 µM (≈ 50 µg/mL) | MIC [18]: ≥ 32 µM | MIC [19]: ≥ 128 µM | MIC [20]: ≥ 512 µM | MIC [21]: 128 µM (≈ 400 µg/mL) | MIC [22]: ≥ 512 µM | MIC [23]: 64 µM (≈ 200 µg/mL) | MIC [24]: 32 µM (≈ 100 µg/mL) | MIC [25]: ≥ 512 µM | MIC (Staphylococcus aureus): > 512 µM

CC(C)C[C@H](NC(=O)[C@H](CC(C)C)NC(=O)[C@H](CC(C)C)NC(=O)[C@H](CC(C)C)NC(=O)[C@H](CC(C)C)NC(=O)[C@H](CC(C)C)NC(=O)[C@H](CC(C)C)NC(=O)[C@H](CC(C)C)NC(=O)[C@H](CC(C)C)NC(=O)[C@H](CCCCN)NC(=O)[C@H](CCCCN)NC(=O)[C@@H](N)CCCCN)C(=O)N[C@@H](CCCCN)C(=O)N[C@@H](CCCCN)C(=O)N[C@@H](CCCCN)C(N)=O [KKKLLLLLLLLLKKK]
MIC [26]: 50 µM (≈ 90.2 µg/mL) | MIC [27]: 50 µM (≈ 90.2 µg/mL) | MIC (Escherichia coli D21): ≥ 50 µM | MIC (Micrococcus luteus): 16 µM (≈ 28.9 µg/mL) | MIC [28]: > 50 µM | MIC [29]: ≥ 50 µM | MIC [30]: ≥ 32 µM | MIC (Staphylococcus simulans): ≥ 32 µM
